According to patent US12527779B2, “Prostaglandin E2 (PGE2) EP4 receptor antagonists” (Domain Therapeutics, priority 2019, dated 2026):
Where a name gives a salt, the structure may show the parent alone.

biological target: T1, human EP4 (hEP4) receptor (Homo sapiens, UniProt P35408); assay: In vitro human EP4 functional antagonist activity using BRET biosensors (cAMP EPAC biosensor, TCS2510 stimulation); format: cell-based; settings: antagonist activity vs EC60 TCS2510, hEP4 in HEK-293 T cells
T1 construct: expressed in transfected cells; host or cells: HEK-293 T cells, transient co-transfection with polyethylenimine
Procedure, shortened: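 HEK-293T cells transiently co-transfected with hEP4 and EPAC cAMP BRET biosensor (luciferase/GFP), assayed 48 h later in HEPES-buffered saline after 1 h at 22 °C. After 5 min with compound, cells stimulated with EC60 TCS2510 and BRET read for 10 min; IC50 from 10-point, 4.5-log variable-slope fits, duplicate, two experiments.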

T1 sequence (P35408 whole entry): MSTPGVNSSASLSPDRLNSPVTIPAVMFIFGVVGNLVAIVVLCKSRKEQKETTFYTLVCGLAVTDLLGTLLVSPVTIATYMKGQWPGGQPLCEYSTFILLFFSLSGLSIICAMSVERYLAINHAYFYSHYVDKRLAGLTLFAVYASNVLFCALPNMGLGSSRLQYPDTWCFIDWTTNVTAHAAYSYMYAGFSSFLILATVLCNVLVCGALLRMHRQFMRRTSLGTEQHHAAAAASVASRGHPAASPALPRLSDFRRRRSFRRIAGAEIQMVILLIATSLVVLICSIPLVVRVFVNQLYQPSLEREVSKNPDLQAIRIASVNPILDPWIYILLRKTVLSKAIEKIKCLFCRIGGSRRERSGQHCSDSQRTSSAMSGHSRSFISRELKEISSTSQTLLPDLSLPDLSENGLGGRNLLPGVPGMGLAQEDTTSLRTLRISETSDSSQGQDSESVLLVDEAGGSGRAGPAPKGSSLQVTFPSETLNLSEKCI

Structure (SMILES) | IC50
CNC(=O)c1ccc([C@H](C)NC(=O)C2(N3CC[C@@H](Oc4cccc(C(F)(F)F)c4)C3)CCOCC2)cc1 [Example 169, hydrochloride] | < 0.1 µM
C[C@H](NC(=O)C1(NCCOc2ccccc2)CCC1)c1ccc(C(=O)O)cc1 [Example 69, 4-[(1S)-1-[[1-(2-Phenoxyethylamino)cyclobutanecarbonyl]amino]ethyl]benzoic acid, hydrochloride] | < 1 µM
C[C@H](NC(=O)C1(c2cccc(OCC3CCCCC3)n2)CCOCC1)c1ccc(C(=O)O)cc1 [Example 115, 4-[(1S)-1-[[4-[6-(Cyclohexylmethoxy)-2-pyridyl]tetrahydropyran-4-carbonyl]amino]ethyl]benzoic acid] | < 1 µM
C[C@H](NC(=O)C1(N2CC[C@@H](Oc3cccc(C(F)(F)F)c3)C2)CCOCC1)c1ccc(C(=O)N(C)C)cc1 [Example 170, 4-[(1S)-1-[[4-[(3R)-3-[3-(Trifluoromethyl)phenoxy]pyrrolidin-1-yl]tetrahydropyran-4-carbonyl]dimethylamino]ethyl]benzamide, hydrochloride] | < 0.1 µM
C[C@H](NC(=O)C1(NCC2CCCCC2)CCOCC1)c1ccc(C(=O)O)cc1 [Example 21, 4-[(1S)-1-[[4-(Cyclohexylmethylamino)tetrahydropyran-4-carbonyl]amino]ethyl]benzoic acid, hydrochloride] | < 1 µM
C[C@H](NC(=O)C(C)(C)N1CC[C@@H](Oc2cccc(C(F)(F)F)c2)C1)c1ccc(S(C)(=O)=O)cc1 [Example 204, 2-Methyl-N—((S)-1-(4-(methylsulfonyl)phenyl)ethyl)-2-((R)-3-(3-(trifluoromethyl)phenoxy)pyrrolidin-1-yl)propanamide, hydrochloride] | < 1 µM
C[C@H](NC(=O)C1(c2ccc(OCC3CCCCC3)nc2)CCOCC1)c1ccc(C(=O)O)cc1 [Example 121, 4-[(1S)-1-[[4-[6-(Cyclohexylmethoxy)-3-pyridyl]tetrahydropyran-4-carbonyl]amino]ethyl]benzoic acid] | < 1 µM
C[C@H](NC(=O)C(C)(C)N1CC[C@@H](COc2cccc(Cl)c2)C1)c1ccc(C(=O)O)cc1 [Example 209, 4-((S)-1-(2-((R)-3-((3-Chlorophenoxy)methyl)pyrrolidin-1-yl)-2-methylpropanamido)ethyl)benzoic acid] | < 0.1 µM
C[C@H](NC(=O)C1(c2cccc(OC3CCCCC3)c2)CCOCC1)c1ccc(C(=O)O)cc1 [Example 100, 4-[(1S)-1-[[4-[3-(Cyclohexoxy)phenyl]tetrahydropyran-4-carbonyl]amino]ethyl]benzoic acid] | < 1 µM
O=C(NC[C@H]1CC[C@H](C(=O)O)CC1)C1(N2CC[C@@H](Oc3cccc(C(F)(F)F)c3)C2)CCOCC1 [Example 200, (1R,4R)-4-((4-((R)-3-(3-(Trifluoromethyl)phenoxy)pyrrolidin-1-yl)tetrahydro-2H-pyran-4-carboxamido)methyl)cyclohexane-1-carboxylic acid, hydrochloride] | < 0.1 µM
C[C@H](NC(=O)C1(N2CC[C@@H](Oc3cccc(C(F)(F)F)c3)C2)CCCC1)c1ccc(C(=O)O)cc1 [Example 164, 4-[(1S)-1-[[1-[(3R)-3-[3-Trifluoromethyl)phenoxy]pyrrolidin-1-yl]cyclopentane-1-carbonyl]amino]ethyl]benzoic acid, hydrochloride] | < 0.1 µM
C[C@H](NC(=O)C1(c2ccnc(OCC3CCCCC3)c2)CCCC1)c1ccc(C(=O)O)cc1 [Example 124, 4-[(1S)-1-[[1-[2-(Cyclohexylmethoxy)-4-pyridyl]cyclopentanecarbonyl]amino]ethyl]benzoic acid] | < 0.1 µM
C[C@H](NC(=O)C1(c2ccc(OCC3CCCCC3)cn2)CCCC1)c1ccc(C(=O)O)cc1 [Example 127, 4-[(1S)-1-[[1-[5-(Cyclohexylmethoxy)-2-pyridyl]cyclopentanecarbonyl]amino]ethyl]benzoic acid] | < 1 µM
C[C@H](NC(=O)C1(c2cc(OCC3CCCCC3)ccn2)CCOCC1)c1ccc(C(=O)O)cc1 [Example 117, 4-[(1S)-1-[[4-[4-(Cyclohexylmethoxy)-2-pyridyl]tetrahydropyran-4-carbonyl]amino]ethyl]benzoic acid] | < 1 µM
C[C@H](NC(=O)C1(N2CC[C@@H](Oc3cccc(Cl)c3)C2)CCC1)c1ccc(C(N)=O)cc1 [Example 172, 4-[(1S)-1-[[1-[(3R)-3-(3-Chlorophenoxy)pyrrolidin-1-yl]cyclobutane-1-carbonyl]amino]ethyl]benzamide, hydrochloride] | < 0.1 µM

Results, then the molecule that gave them:

IC50 | Structure (SMILES)
< 0.1 µM | O=C(O)c1ccc(C2(NC(=O)C3(OCCOc4cccc(Cl)c4)CCOCC3)CC2)cc1 [Example 82, 4-[1-[[4-[2-(3-Chlorophenoxy)ethoxy]tetrahydropyran-4-carbonyl]amino]cyclopropyl]benzoic acid]
< 1 µM | CN(CCOc1ccc(OC(F)(F)F)cc1)C1(C(=O)NC2(c3ccc(C(=O)O)cc3)CC2)CCOCC1 [Example 45, 4-[1-[[4-[2-(4-Trifluoromethoxyphenoxy)ethyl-methyl-amino]tetrahydropyran-4-carbonyl]amino]cyclopropyl]benzoic acid, hydrochloride]
< 0.1 µM | O=C(O)c1ccc(C2(NC(=O)C3(N4CC[C@@H](Oc5cccc(C(F)(F)F)c5)C4)CCOCC3)CC2)cc1 [Example 145, 4-[1-[[4-[(3R)-3-[3-(Trifluoromethyl)phenoxy]pyrrolidin-1-yl]tetrahydropyran-4-carbonyl]amino]cyclopropyl]benzoic acid, hydrochloride]
< 1 µM | C[C@H](NC(=O)C1(c2cccc(OCC3CCCCC3)c2)CCOCC1)c1ccc(C(=O)O)cc1 [Example 97, 4-[(1S)-1-[[4-[3-(Cyclohexylmethoxy)phenyl]tetrahydropyran-4-carbonyl]amino]ethyl]benzoic acid]
< 0.1 µM | O=C(O)c1ccc(C2(NC(=O)C3(NCCOc4cccc(Cl)c4)CCOCC3)CC2)cc1 [Example 28, 4-[1-[[4-[2-(3-Chlorophenoxy)ethylamino]tetrahydropyran-4-carbonyl]amino]cyclopropyl]benzoic acid, hydrochloride]
< 1 µM | C[C@H](NC(=O)C1(N(C)CCOc2ccccc2)CCOCC1)c1ccc(C(=O)N(C)C)cc1 [Example 5, N-[(1S)-1-[4-(Dimethylcarbamoyl)phenyl]ethyl]-4-[methyl(2-phenoxyethyl)amino]tetrahydropyran-4-carboxamide]
< 0.1 µM | C[C@H](NC(=O)C1(N2CC[C@@H](Oc3cccc(OC(F)(F)F)c3)C2)CCOCC1)c1ccc(C(=O)O)cc1 [Example 146, 4-[(1S)-1-[[4-[(3R)-3-[3-(Trifluoromethoxy)phenoxy]pyrrolidin-1-yl]tetrahydropyran-4-carbonyl]amino]ethyl]benzoic acid, hydrochloride]
< 0.1 µM | C[C@H](NC(=O)C1(NCCOc2cccc(Cl)c2)CCOCC1)c1ccc(C(=O)O)cc1 [Example 8, 4-[(1S)-1-[[4-[2-(3-Chlorophenoxy)ethylamino]tetrahydropyran-4-carbonyl]amino]ethyl]benzoic acid, hydrochloride]
< 1 µM | C[C@H](NC(=O)C1(c2ccc(OCC(F)(F)F)cc2)CCOCC1)c1ccc(C(=O)O)cc1 [Example 91, 4-[(1S)-1-[[4-[4-(2,2,2-Trifluoroethoxy)phenyl]tetrahydropyran-4-carbonyl]amino]ethyl]benzoic acid]
< 0.1 µM | C[C@H](NC(=O)C1(N(C)CCOc2cccc(Cl)c2)CCCCC1)c1ccc(C(=O)O)cc1 [Example 57, 4-[(1S)-1-[[1-[2-(3-Chlorophenoxy)ethyl-methyl-amino]cyclohexanecarbonyl]amino]ethyl]benzoic acid, hydrochloride]
< 1 µM | O=C(O)c1ccc(C2(NC(=O)C3(N(CCOc4ccccc4)CC4CC4)CCOCC3)CC2)cc1 [Example 27, 4-[1-[[4-[Cyclopropylmethyl(2-phenoxyethyl)amino]tetrahydropyran-4-carbonyl]amino]cyclopropyl]benzoic acid, hydrochloride]
< 0.1 µM | C[C@H](NC(=O)C1(N2CC[C@@H](Oc3cccc(C(F)(F)F)c3)C2)CCC(F)(F)CC1)c1ccc(C(=O)O)cc1 [Example 163, 4-[(1S)-1-[[1-[(3R)-3-[3-(Trifluoromethyl)phenoxy]pyrrolidin-1-yl]-4,4-difluorocyclohexane-1-carbonyl]amino]ethyl]benzoic acid, hydrochloride]
< 1 µM | C[C@H](NC(=O)C1(c2ccc(OCc3ccccc3)cc2)CCOCC1)c1ccc(C(=O)O)cc1 [Example 88, 4-[(1S)-1-[[4-(4-Benzyloxyphenyl)tetrahydropyran-4-carbonyl]amino]ethyl]benzoic acid]
< 0.1 µM | C[C@H](NC(=O)C1(N2CC[C@@H](Oc3cccc(C(F)(F)F)c3)C2)CCOCC1)c1ccc(C(=O)O)cc1 [Example 144, 4-[(1S)-1-[[4-[(3R)-3-[3-(Trifluoromethyl)phenoxy]pyrrolidin-1-yl]tetrahydropyran-4-carbonyl]amino]ethyl]benzoic acid, hydrochloride]
< 1 µM | COc1ccccc1OCCN(C)C1(C(=O)NC2(c3ccc(C(=O)O)cc3)CC2)CCOCC1 [Example 39, 4-[1-[[4-[2-(2-Methoxyphenoxy)ethyl-methyl-amino]tetrahydropyran-4-carbonyl]amino]cyclopropyl]benzoic acid, hydrochloride]
< 1 µM | C[C@H](NC(=O)C1(c2ccc(OCC3CCCCC3)cn2)CCOCC1)c1ccc(C(=O)O)cc1 [Example 119, 4-[(1S)-1-[[4-[5-(Cyclohexylmethoxy)-2-pyridyl]tetrahydropyran-4-carbonyl]amino]ethyl]benzoic acid]
< 1 µM | CCCN(CCOc1ccccc1)C1(C(=O)NC2(c3ccc(C(=O)O)cc3)CC2)CCOCC1 [Example 26, 4-[1-[[4-[Propyl(2-phenoxyethyl)amino]tetrahydropyran-4-carbonyl]amino]cyclopropyl]benzoic acid, hydrochloride]
